Data as given in patent US9901592B2 (priority 2008, dated 2018).
In brackets after ≈: the same amount, converted by molar mass. Several values for one entry are separate records, joined by “and”; a condition that tells them apart may be missing. Equal entries are not always repeated. Where two headings read alike, the source gives them in different places.

Key:
[1] = test system: U. urealyticum; assay: MIC testing in 10B broth (colour change); type: cell-based; conditions: U. urealyticum (10 isolates); for MIC50 / MIC90: Ureaplasma urealyticum
[2] = test system: M. pneumoniae; assay: microbe, parasite or virus in culture; type: cell-based; conditions: for MIC50 / MIC90: Mycoplasmoides pneumoniae
[3] = test system: pneumococci; assay: microbe, parasite or virus in culture; type: cell-based, S. pneumoniae
[4] = test system: group A streptococci; assay: microbe, parasite or virus in culture; type: cell-based, S. pyogenes
[5] = test system: M. genitalium; type: cell-based; conditions: M. genitalium (5 isolates)
[6] = test system: N. meningitidis; assay: MIC, CLSI broth microdilution, invasive isolates; type: cell-based; conditions: for % Res. / % Susc.: CLSI (M100-S19, 2009) criteria; for MIC / MIC50 / MIC90: Neisseria meningitidis
Method: Example. […] Colonization of the nasopharynx (NP) by NM can lead to invasive meningococcal disease. Chemoprophylaxis is used to eradicate NP colonization and prevent transmission to nonimmune contacts. […] 62 isolates (91.9% blood culture) of NM were collected from 29 medical centers in North and South America and Europe (1997-2008). […] Serological identification was performed for serogroups (SGs) B, C, Y and W135.

[7] = test system: M. hominis; type: cell-based; conditions: M. hominis (13 isolates); for MIC50 / MIC90: Metamycoplasma hominis; for MIC50: read-out: MIC50; for MIC90: read-out: MIC90
[8] = test system: streptococci; assay: organism not typed; type: cell-based
[9] = test system: M. fermentans; type: cell-based; conditions: M. fermentans (15 isolates); for MIC50 / MIC90: Mycoplasmopsis fermentans
[10] = test system: U. parvum; assay: MIC testing in 10B broth (colour change); type: cell-based, Ureaplasma parvum; conditions: U. parvum (10 isolates); for MIC50 / MIC90: Ureaplasma parvum; for MIC50: read-out: MIC50; for MIC90: read-out: MIC90
[11] = test system: S. pneumoniae; assay: microbe, parasite or virus in culture; type: cell-based
[12] = test system: M. catarrhalis; assay: microbe, parasite or virus in culture; type: cell-based
[13] = Streptococcus pneumoniae, pneumococci, L4 mutations (27)

C[C@H]1COc2c(N3CCN(C)CC3)c(F)cc3c(=O)c(C(=O)O)cn1c23 [Levofloxacin, levofloxacin]
MIC Range [1]: 0.5 to 2 µg/mL | MIC50 [1]: 0.5 µg/mL (≈ 1.38 µM) | MIC90 [1]: 1 µg/mL (≈ 2.77 µM) | MIC Range [2]: 0.125 to 1 µg/mL | MIC50 [2]: 0.5 µg/mL (≈ 1.38 µM) | MIC90 [2]: 0.5 µg/mL (≈ 1.38 µM) | MIC50 [3, 13]: 1 µg/mL (≈ 2.77 µM) | MIC90 [3, 13]: 2 µg/mL (≈ 5.53 µM) | MIC ([3]; Streptococcus pneumoniae, read-out: MIC range, pneumococci, L4 mutations (27)): 0.5 to 16 µg/mL (≈ 1.38 to 44.3 µM) | MIC90 [4]: 0.5 µg/mL (≈ 1.38 µM) | MIC Range [4]: 0.5 to 1 µg/mL and 0.5 µg/mL | MIC50 ([4]; Streptococcus pyogenes): 0.5 µg/mL (≈ 1.38 µM) | MIC90 ([4]; Streptococcus pyogenes): 1 µg/mL (≈ 2.77 µM) | MIC ([4]; Streptococcus pyogenes, read-out: MIC Range): 0.5 to 2 µg/mL (≈ 1.38 to 5.53 µM) | MIC Range [5]: 0.125 to 1 µg/mL | % Res. [6]: 0.0% | % Susc. [6]: 100.0% | MIC ([6]; 62 N. meningitidis isolates): 0.008 to 0.015 µg/mL (≈ 0.0221 to 0.0415 µM) | MIC50 ([6]; 62 N. meningitidis isolates): ≤ 0.008 µg/mL | MIC90 ([6]; 62 N. meningitidis isolates): ≤ 0.008 µg/mL | MIC Range [7]: 0.125 to 0.5 µg/mL | MIC50 [7]: 0.25 µg/mL (≈ 0.692 µM) | MIC90 [7]: 0.5 µg/mL (≈ 1.38 µM) | MIC50 [8]: 1 µg/mL (≈ 2.77 µM) | MIC90 [8]: 1 µg/mL (≈ 2.77 µM) | MIC 90% [8]: 2 µg/mL (≈ 5.53 µM) | MIC Range [9]: ≦0.008-0.25 μg/mL | MIC50 [9]: 0.031 µg/mL (≈ 0.0858 µM) | MIC90 [9]: 0.125 µg/mL (≈ 0.346 µM) | MIC Range [10]: 0.125 to 2 µg/mL | MIC50 [10]: 0.5 µg/mL (≈ 1.38 µM) | MIC90 [10]: 2 µg/mL (≈ 5.53 µM)

CC(=O)NC[C@H]1CN(c2ccc(N3CCOCC3)c(F)c2)C(=O)O1 [Linezolid, linezolid]
MIC50 [1]: > 256 µg/mL | MIC90 [1]: > 256 µg/mL | MIC Range [2]: 32 to 128 µg/mL | MIC50 [2]: 64 µg/mL (≈ 190 µM) | MIC90 [2]: 128 µg/mL (≈ 379 µM) | MIC Range [5]: 4 to 128 µg/mL | MIC Range [7]: 1 to 8 µg/mL | MIC50 [7]: 2 µg/mL (≈ 5.93 µM) | MIC90 [7]: 4 µg/mL (≈ 11.9 µM) | MIC50 [8]: 1 µg/mL (≈ 2.96 µM) | MIC90 [8]: 2 µg/mL (≈ 5.93 µM) | MIC 90% [8]: 1 µg/mL (≈ 2.96 µM) | MIC Range [8]: 0.25 to 2 µg/mL and 0.5 to 2 µg/mL | MIC90 ([11]; Streptococcus pneumoniae): 2 µg/mL (≈ 5.93 µM) | MIC Range [9]: 0.5 to 4 µg/mL | MIC50 [9]: 1 µg/mL (≈ 2.96 µM) | MIC90 [9]: 4 µg/mL (≈ 11.9 µM) | MIC50 [10]: > 256 µg/mL | MIC90 [10]: > 256 µg/mL

CN(C)c1ccc(O)c2c1C[C@H]1C[C@H]3[C@H](N(C)C)C(O)=C(C(N)=O)C(=O)[C@@]3(O)C(O)=C1C2=O [Minocycline]
% Susc. [6]: 100.0% | MIC ([6]; 62 N. meningitidis isolates): 0.008 to 0.25 µg/mL (≈ 0.0175 to 0.546 µM) | MIC50 ([6]; 62 N. meningitidis isolates): 0.12 µg/mL (≈ 0.262 µM) | MIC90 ([6]; 62 N. meningitidis isolates): 0.12 µg/mL (≈ 0.262 µM)

COc1c(N2C[C@@H]3CCCN[C@@H]3C2)c(F)cc2c(=O)c(C(=O)O)cn(C3CC3)c12 [Moxi]
MIC50 [3]: 0.25 µg/mL (≈ 0.623 µM) | MIC Range [3]: 0.125 to 4 µg/mL | MIC range [3]: 0.125 to 8 µg/mL | MIC50 [4]: 0.25 µg/mL (≈ 0.623 µM) | MIC90 [4]: 0.25 µg/mL (≈ 0.623 µM) | MIC Range [4]: 0.125 to 0.25 µg/mL and 0.125 to 0.5 µg/mL

CC1(C)S[C@@H]2[C@H](NC(=O)Cc3ccccc3)C(=O)N2[C@H]1C(=O)O [Pen G]
MIC50 [3]: 1 µg/mL (≈ 2.99 µM) | MIC90 [3]: 2 µg/mL and 4 µg/mL | MIC range [3]: 0.015 to 8 µg/mL | MIC50 [4]: 0.015 µg/mL (≈ 0.0449 µM) | MIC90 [4]: 0.015 µg/mL and 0.03 µg/mL | MIC Range [4]: <0.008 to 0.125 µg/mL and 0.008 to 0.015 µg/mL and <0.008 to 0.015 µg/mL and 0.015 µg/mL

CC1(C)S[C@@H]2[C@H](NC(=O)Cc3ccccc3)C(=O)N2[C@H]1C(=O)O [Penicillin G]
MIC50 ([3]; pneumococci, L4 mutations (27)): 4 µg/mL (≈ 12 µM) | MIC90 ([3]; pneumococci, L4 mutations (27)): 16 µg/mL (≈ 47.8 µM) | MIC50 [4]: 0.015 µg/mL (≈ 0.0449 µM) | MIC90 [4]: 0.015 µg/mL and 0.03 µg/mL

Amoxicillin Clavulanate
MIC50 ([3]; pneumococci, L4 mutations (27)): 4 µg/mL | MIC90 ([3]; pneumococci, L4 mutations (27)): 8 µg/mL

amoxicillin/clavulanate
MIC Range [3]: 0.015 to 16 µg/mL | MIC50 ([3]; pneumococci, L4 mutations (27)): 4 µg/mL | MIC90 ([3]; pneumococci, L4 mutations (27)): 8 µg/mL | MIC range ([3]; pneumococci, L4 mutations (27)): 0.125 to 8 µg/mL | MIC50 [4]: 0.03 µg/mL and <0.015 µg/mL and 0.015 µg/mL | MIC90 [4]: 0.03 µg/mL and 0.06 µg/mL | MIC Range [4]: 0.015 to 0.03 µg/mL and 0.03 µg/mL | nonsusceptibility [11]: 88.9%

quinupristin/dalfopristin [Q/D]
MIC 50% [8]: 0.5 µg/mL | MIC 90% [8]: 0.5 µg/mL and 1 µg/mL | MIC 90% [11]: 1 µg/mL | susceptible [11]: 100.0% | MIC 90% [12]: 0.5 µg/mL

trimethoprim/sulfamethoxazole [TMP/SMX]
MIC 50% ([6]; 62 N. meningitidis isolates): 0.5 µg/mL | MIC 90% ([6]; 62 N. meningitidis isolates): 2 µg/mL | MIC Range ([6]; 62 N. meningitidis isolates): ≦0.06-4 μg/ml | % Res. [6]: 59.7% | % Susc. [6]: 37.1% | nonsusceptibility [11]: 100.0%
